{"source": "PubChem BioAssay AID1963849", "about": "(Molecular Pharmacology Branch, DTP, NCI, 2024);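 further: spheroids exposed to drugs for one week before measurement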;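 on viability, T/C: percent viability relative to DMSO vehicle control taken as 100%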", "tested_on": "299254-011-R-J1-PDC complex spheroid viability", "experiment": "Anticancer human tumor 299254-011-R-J1-PDC patient-derived melanoma cell line growth inhibition [POLQ]", "settings": "for IC50: curve of first compound; for viability, T/C: stronger effect = lower value", "procedure,_shortened": "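PDC + HUVEC + MSC complex spheroids; POLQ inhibitors ± partner drugs; top conc. at/near clinical Cmax, else 10 microM (SN-38 1 microM), half-log dilutions; 37 degrees C, 5% CO2.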", "key": {"[1]": {"settings": "second compound 0.0316 µM, first compound 0.0316 µM"}, "[2]": {"settings": "second compound 0.0316 µM, first compound 0.1 µM"}, "[3]": {"settings": "second compound 0.0316 µM, first compound 0.316 µM"}, "[4]": {"settings": "second compound 0.0316 µM, first compound 1 µM"}, "[5]": {"settings": "second compound 0.0316 µM, first compound 3.16 µM"}, "[6]": {"settings": "second compound 0.0316 µM, first compound 10 µM"}, "[7]": {"settings": "second compound 0.1 µM, first compound 0.0316 µM"}, "[8]": {"settings": "second compound 0.1 µM, first compound 0.1 µM"}, "[9]": {"settings": "second compound 0.1 µM, first compound 0.316 µM"}, "[10]": {"settings": "second compound 0.1 µM, first compound 1 µM"}, "[11]": {"settings": "second compound 0.1 µM, first compound 3.16 µM"}, "[12]": {"settings": "second compound 0.1 µM, first compound 10 µM"}, "[13]": {"settings": "second compound 0.316 µM, first compound 0.0316 µM"}, "[14]": {"settings": "second compound 0.316 µM, first compound 0.1 µM"}, "[15]": {"settings": "second compound 0.316 µM, first compound 0.316 µM"}, "[16]": {"settings": "second compound 0.316 µM, first compound 1 µM"}, "[17]": {"settings": "second compound 0.316 µM, first compound 3.16 µM"}, "[18]": {"settings": "second compound 0.316 µM, first compound 10 µM"}, "[19]": {"settings": "second compound 1 µM, first compound 0.0316 µM"}, "[20]": {"settings": "second compound 1 µM, first compound 0.1 µM"}, "[21]": {"settings": "second compound 1 µM, first compound 0.316 µM"}, "[22]": {"settings": "second compound 1 µM, first compound 1 µM"}, "[23]": {"settings": "second compound 1 µM, first compound 3.16 µM"}, "[24]": {"settings": "second compound 1 µM, first compound 10 µM"}, "[25]": {"settings": "second compound 3.16 µM, first compound 0.0316 µM"}, "[26]": {"settings": "second compound 3.16 µM, first compound 0.1 µM"}, "[27]": {"settings": "second compound 3.16 µM, first compound 0.316 µM"}, "[28]": {"settings": "second compound 3.16 µM, first compound 1 µM"}, "[29]": {"settings": "second compound 3.16 µM, first compound 3.16 µM"}, "[30]": {"settings": "second compound 3.16 µM, first compound 10 µM"}, "[31]": {"settings": "second compound 10 µM, first compound 0.0316 µM"}, "[32]": {"settings": "second compound 10 µM, first compound 0.1 µM"}, "[33]": {"settings": "second compound 10 µM, first compound 0.316 µM"}, "[34]": {"settings": "second compound 10 µM, first compound 1 µM"}, "[35]": {"settings": "second compound 10 µM, first compound 3.16 µM"}, "[36]": {"settings": "second compound 10 µM, first compound 10 µM"}}}
{"smiles": "C#Cc1c(F)ccc2cc(O)cc(-c3ncc4c(N5CC6CCC(C5)N6)nc(OCC56CCCN5CC(F)C6)nc4c3F)c12", "note": "(centres undefined) + COC1C(OC(N)=O)C(O)C(Oc2ccc3c(O)c(NC(=O)c4ccc(O)c(CC=C(C)C)c4)c(=O)oc3c2C)OC1(C)C", "values": [{"measurement": "IC50", "setting": "second compound 0.0316 µM", "result": "> 10000", "unit": "nM"}, {"measurement": "IC50", "setting": "second compound 0.1 µM", "result": "> 10000", "unit": "nM"}, {"measurement": "IC50", "setting": "second compound 0.316 µM", "result": "> 10000", "unit": "nM"}, {"measurement": "IC50", "setting": "second compound 1 µM", "result": "> 10000", "unit": "nM"}, {"measurement": "IC50", "setting": "second compound 3.16 µM", "result": "> 10000", "unit": "nM"}, {"measurement": "IC50", "setting": "second compound 10 µM", "result": "> 10000", "unit": "nM"}, {"measurement": "viability, T/C", "setting": "[1]", "result": 87.2, "unit": "%"}, {"measurement": "viability, T/C", "setting": "[2]", "result": 125, "unit": "%"}, {"measurement": "viability, T/C", "setting": "[3]", "result": 105, "unit": "%"}, {"measurement": "viability, T/C", "setting": "[4]", "result": 115, "unit": "%"}, {"measurement": "viability, T/C", "setting": "[5]", "result": 96.4, "unit": "%"}, {"measurement": "viability, T/C", "setting": "[6]", "result": 79.7, "unit": "%"}, {"measurement": "viability, T/C", "setting": "[7]", "result": 102, "unit": "%"}, {"measurement": "viability, T/C", "setting": "[8]", "result": 99.2, "unit": "%"}, {"measurement": "viability, T/C", "setting": "[9]", "result": 99.2, "unit": "%"}, {"measurement": "viability, T/C", "setting": "[10]", "result": 114, "unit": "%"}, {"measurement": "viability, T/C", "setting": "[11]", "result": 94.8, "unit": "%"}, {"measurement": "viability, T/C", "setting": "[12]", "result": 80.9, "unit": "%"}, {"measurement": "viability, T/C", "setting": "[13]", "result": 110, "unit": "%"}, {"measurement": "viability, T/C", "setting": "[14]", "result": 104, "unit": "%"}, {"measurement": "viability, T/C", "setting": "[15]", "result": 107, "unit": "%"}, {"measurement": "viability, T/C", "setting": "[16]", "result": 114, "unit": "%"}, {"measurement": "viability, T/C", "setting": "[17]", "result": 105, "unit": "%"}, {"measurement": "viability, T/C", "setting": "[18]", "result": 72.7, "unit": "%"}, {"measurement": "viability, T/C", "setting": "[19]", "result": 104, "unit": "%"}, {"measurement": "viability, T/C", "setting": "[20]", "result": 98.2, "unit": "%"}, {"measurement": "viability, T/C", "setting": "[21]", "result": 105, "unit": "%"}, {"measurement": "viability, T/C", "setting": "[22]", "result": 136, "unit": "%"}, {"measurement": "viability, T/C", "setting": "[23]", "result": 102, "unit": "%"}, {"measurement": "viability, T/C", "setting": "[24]", "result": 79.4, "unit": "%"}, {"measurement": "viability, T/C", "setting": "[25]", "result": 114, "unit": "%"}, {"measurement": "viability, T/C", "setting": "[26]", "result": 109, "unit": "%"}, {"measurement": "viability, T/C", "setting": "[27]", "result": 106, "unit": "%"}, {"measurement": "viability, T/C", "setting": "[28]", "result": 109, "unit": "%"}, {"measurement": "viability, T/C", "setting": "[29]", "result": 101, "unit": "%"}, {"measurement": "viability, T/C", "setting": "[30]", "result": 70.6, "unit": "%"}, {"measurement": "viability, T/C", "setting": "[31]", "result": 93.9, "unit": "%"}, {"measurement": "viability, T/C", "setting": "[32]", "result": 99.7, "unit": "%"}, {"measurement": "viability, T/C", "setting": "[33]", "result": 111, "unit": "%"}, {"measurement": "viability, T/C", "setting": "[34]", "result": 101, "unit": "%"}, {"measurement": "viability, T/C", "setting": "[35]", "result": 111, "unit": "%"}, {"measurement": "viability, T/C", "setting": "[36]", "result": 69.2, "unit": "%"}]}
{"smiles": "CC1COCCN1c1cc(C2(O)CC3CCC(C2)O3)c2cnn(-c3ccn[nH]3)c2n1", "note": "(centres undefined) + COC1C(OC(N)=O)C(O)C(Oc2ccc3c(O)c(NC(=O)c4ccc(O)c(CC=C(C)C)c4)c(=O)oc3c2C)OC1(C)C", "values": [{"measurement": "IC50", "setting": "second compound 0.0316 µM", "result": 136, "unit": "nM"}, {"measurement": "IC50", "setting": "second compound 0.1 µM", "result": 182, "unit": "nM"}, {"measurement": "IC50", "setting": "second compound 0.316 µM", "result": 206, "unit": "nM"}, {"measurement": "IC50", "setting": "second compound 1 µM", "result": 163, "unit": "nM"}, {"measurement": "IC50", "setting": "second compound 3.16 µM", "result": 159, "unit": "nM"}, {"measurement": "IC50", "setting": "second compound 10 µM", "result": 176, "unit": "nM"}, {"measurement": "viability, T/C", "setting": "[1]", "result": 102, "unit": "%"}, {"measurement": "viability, T/C", "setting": "[2]", "result": 53.5, "unit": "%"}, {"measurement": "viability, T/C", "setting": "[3]", "result": 35.8, "unit": "%"}, {"measurement": "viability, T/C", "setting": "[4]", "result": 20.7, "unit": "%"}, {"measurement": "viability, T/C", "setting": "[5]", "result": 14.8, "unit": "%"}, {"measurement": "viability, T/C", "setting": "[6]", "result": 11.1, "unit": "%"}, {"measurement": "viability, T/C", "setting": "[7]", "result": 86.4, "unit": "%"}, {"measurement": "viability, T/C", "setting": "[8]", "result": 64.8, "unit": "%"}, {"measurement": "viability, T/C", "setting": "[9]", "result": 36.6, "unit": "%"}, {"measurement": "viability, T/C", "setting": "[10]", "result": 18.9, "unit": "%"}, {"measurement": "viability, T/C", "setting": "[11]", "result": 16.8, "unit": "%"}, {"measurement": "viability, T/C", "setting": "[12]", "result": 11.5, "unit": "%"}, {"measurement": "viability, T/C", "setting": "[13]", "result": 88.9, "unit": "%"}, {"measurement": "viability, T/C", "setting": "[14]", "result": 75.6, "unit": "%"}, {"measurement": "viability, T/C", "setting": "[15]", "result": 34, "unit": "%"}, {"measurement": "viability, T/C", "setting": "[16]", "result": 20.4, "unit": "%"}, {"measurement": "viability, T/C", "setting": "[17]", "result": 14, "unit": "%"}, {"measurement": "viability, T/C", "setting": "[18]", "result": 11.6, "unit": "%"}, {"measurement": "viability, T/C", "setting": "[19]", "result": 109, "unit": "%"}, {"measurement": "viability, T/C", "setting": "[20]", "result": 56.5, "unit": "%"}, {"measurement": "viability, T/C", "setting": "[21]", "result": 37.4, "unit": "%"}, {"measurement": "viability, T/C", "setting": "[22]", "result": 27.1, "unit": "%"}, {"measurement": "viability, T/C", "setting": "[23]", "result": 15.6, "unit": "%"}, {"measurement": "viability, T/C", "setting": "[24]", "result": 10.2, "unit": "%"}, {"measurement": "viability, T/C", "setting": "[25]", "result": 91.5, "unit": "%"}, {"measurement": "viability, T/C", "setting": "[26]", "result": 61.1, "unit": "%"}, {"measurement": "viability, T/C", "setting": "[27]", "result": 33.1, "unit": "%"}, {"measurement": "viability, T/C", "setting": "[28]", "result": 20.4, "unit": "%"}, {"measurement": "viability, T/C", "setting": "[29]", "result": 13, "unit": "%"}, {"measurement": "viability, T/C", "setting": "[30]", "result": 11.1, "unit": "%"}, {"measurement": "viability, T/C", "setting": "[31]", "result": 87.6, "unit": "%"}, {"measurement": "viability, T/C", "setting": "[32]", "result": 60.5, "unit": "%"}, {"measurement": "viability, T/C", "setting": "[33]", "result": 40.7, "unit": "%"}, {"measurement": "viability, T/C", "setting": "[34]", "result": 17.9, "unit": "%"}, {"measurement": "viability, T/C", "setting": "[35]", "result": 16.6, "unit": "%"}, {"measurement": "viability, T/C", "setting": "[36]", "result": 10.2, "unit": "%"}]}
